Measurements taken from PMC8962522, “Direct interaction of TrkA/CD44v3 is essential for NGF-promoted aggressiveness of breast cancer cells” (Journal of Experimental & Clinical Cancer Research : CR, 2022).

Experiments:
Assay type in all cases: cell-based
TrkA in MDA-MB-231 cells = assay: Immunofluorescence, membrane TrkA; settings: MDA-MB-231, immunofluorescence/confocal, NGF; "same trend" = as CD44v3: increased until 15 min and then decreased
Text: The CD44v3- and CD44v6-containing isoforms expressing respectively exon 8 and 11(Fig. 1A) can interact with growth factor receptors. Using COS-7 cells with low CD44 and TrkA expression (Supplementary Fig. 1A-D), we differentially expressed TrkA and CD44s or a CD44 variant, either CD44v3 or CD44v6 (Fig. 1B, supplementary Fig. 2). […] Additionally, we evaluated the expression of TrkA and CD44v3 at the membrane level or in cells by immunofluorescence in MDA-MB-231 cells.
Supplementary file 13046_2022_2314_MOESM3_ESM.pdf: Additional file 3: Supplementary Figure 1. Validation of the ectopic expression of CD44 and/or TrkA in COS-7 cells. The expression of all CD44 isoforms (A), CD44 variant 3 (B), CD44 variant 6 (C) and TrkA ([…]; D) was evaluated by RT–qPCR (normalized using PUM-1). No expression of CD44, CD44 variants [3 or 6] or TrkA was detected in COS-7 cells (A-D) compared with that in cells transfected with the expression plasmid carrying each protein. […] Quantification of the PLA results was performed using ImageJ software (30 randomly chosen fields per condition of three different experiments). […] CD44v3 and CD44v6 levels at the plasma membrane were assessed by flow cytometry (A-D). The plasma membrane and total TrkA and CD44v3 levels were also quantified by confocal microscopy (E-H). […] The CD44v3/NGF interaction was evaluated using microscale thermophoresis (MST). […]

SUM-159-PT cells = assay: Scratch/wound migration assay, SUM-159-PT; settings: 24 h after treatment; Supplementary Fig. 9 C & D; effects as in MDA-MB-231 (inhibition of NGF-induced migration)
TrkA phosphorylation = assay: Western blot of TrkA phosphorylation
Text: To further elucidate the mechanism of action of CD44v3 mimetic peptide 4, we studied its effect on the TrkA signaling pathway. First, we performed western blot analysis to determine the effect of mimetic peptide 4 on TrkA phosphorylation (Fig. 5A). […] Therefore, we performed acceptor (photo) bleaching (AB)-FRET to examine the effect of CD44v3 mimetic peptide 4 on NGF-induced RhoA activity in MDA-MB-231 cells transfected with a RhoA FRET biosensor [18] (Fig. 5B). […] Additionally, to confirm that this effect was independent of TrkA phosphorylation, we measured RhoA activation in MDA-MB-231 cells expressing dead TrkA kinase, which cannot be phosphorylated (Fig. 5D). […] Furthermore, a similar decrease in RhoA activation was obtained using the TrkA-H112A mutation, which also prevents the formation of the TrkA/CD44v3 complex in the absence or presence of the TrkA kinase inhibitor k252A (Supplementary Fig. 11B & C, Supplementary Video 1 & 2).
Fig. 5 CD44v3 is implicated in the phospho-TrkA-independent activation of RhoA GTPase. Phosphorylation of TrkA was measured in the presence of a scramble peptide or CD44v3 mimetic peptide 4 (P4) in the presence or absence of NGF (A). Schematic representation of the Rho biosensor; (B). […] Phosphorylation of TrkA and downstream Akt in wild-type MDA-MB-231 and MDA-MB-231 cells expressing kinase-dead TrkA, as determined by western blotting (D). […]

Row | Substance | level of TrkA at the membrane (in words) (TrkA in MDA-MB-231 cells) | effect on migration of SUM-159-PT cells (SUM-159-PT cells) | effect on NGF-induced TrkA phosphorylation (TrkA phosphorylation)
1 | NGF: recombinant human β-NGF (Alomone Labs, Israel) | the membrane level of TrkA followed the same trend | – | –
2 | IDDDEDFISST [Peptide 4, mimetic peptide 4 (…) corresponding to the C-terminal region of CD44v3] | – | We also confirmed the effects of CD44v3 mimetic peptide 4 on migration in SUM-159-PT cells | did not inhibit TrkA phosphorylation induced by NGF
